# In patent US10426755B2, “Methods for inhibiting cancer cells” (Chang Gung Memorial Hospital, Chiayi, priority 2015, dated 2019):
# Entries after “also recorded” stand apart in the source; their conditions may differ.
# What was measured:
# Type in all cases: cell-based
# [1] = test system: prostate cancer cells (metastatic DU145, PC3, 22RV1); assay: Cell invasion assay (transwell, Matrigel), prostate cancer cells; details: 5 or 10 μM DT, 3 days, vs control vehicle; FIG. 12 (a), (c), (e)
# Experimental: (§1) An in vitro evaluation of the effect of DT on lung cancer cells (A549 and chemotherapy resistant/metastatic H460), prostate cancer cells (metastatic DU145) and colorectal cancer cells (chemotherapy resistant HCT116) invasion and migration was performed, using cell invasion assay and cell migration assay.
# (§2) Cell Invasion Assay: cells of interest were treated with a control vehicle, 5 or 10 μM of DT and incubated for 3 days. 1×10^5 cells were placed into the upper chamber of transwell plates (8 μm) with membranes pre-coated with 20% Matrigel and the bottom chamber contained 600 μL media supplemented with 10% fetal bovine serum (FBS). The cells migrated to the bottom of the chamber were fixed, stained and counted.
# [2] = test system: macrophages; assay: Macrophage mobility after DT treatment; details: macrophages treated with 5 or 10 μM DT vs DMSO
# Experimental: An in vitro study to evaluate the effect of DT on macrophage and cancer cell migration was performed.
# Macrophages were treated with a vehicle (DMSO), 5 or 10 μM DT. The mobility of the macrophages was not affected by DT. The macrophages were placed in an invasive assay, prepared accordingly to the steps in Example 10 using DT-treated prostate cancer cells (DU145 or PC3) incubated in 10% CD-FBS RPMI medium.
# [3] = test system: prostate cancer cells (hormone therapy-resistant PC3, DU145 and LNCaP); assay: Annexin V/PI flow cytometry apoptosis/necrosis, prostate cancer cells; details: 10 or 20 μM DT, 24-48 hours, vs PBS and DMSO vehicle (CT); time dependent; FIG. 6
# Experimental: The effect of DT on metastatic prostate cancer cells (hormone therapy-resistant PC3, DU145 and LNCaP); lung cancer cells (A549 and chemotherapy-resistant/metastatic H460); and breast cancer cells (MCF-7, tamoxifen-resistant MCF7 and MDA MB-231) was assessed.
# 1×10^6 Cancer cells were seeded in a 100-mm plate and cultured overnight. The cancer cells were treated with phosphate buffered saline (PBS), a Dimethyl sulfoxide (DMSO) vehicle (CT), 10 or 20 μM of DT for 24-48 hours, then collected and washed with cold PBS. The supernatant was removed by centrifugation and resuspended in FITC Annexin V binding buffer and Propidium iodide (PI) (Annexin V-FITC Apoptosis Detection Kit, commercially available from Strong Biotech Corporation, Taiwan). The suspended cancer cells were stained at room temperature, in the dark for 15 min and analyzed by the BD FACSCanto™ flow cytometry (Becton Dickinson, USA). The amount of early apoptosis, late apoptosis, and necrosis was measured as the percentage of annexin-V positive/PI negative (Q4 in the FACS images), annexin-V positive/PI positive (Q2 in the FACS images), and annexin-V negative/PI positive cells (Q1 in the FACS images), respectively. Normal cells are in […] of the FACS images.
# [4] = test system: prostate cancer cells (PC3, DU145 and 22RV1); assay: Prostate cancer cell invasion assay with DT-treated conditioned media; details: 5-10 μM DT, 24 hours, results not shown
# Experimental: as §2
# (§3) As illustrated in Example 10, the production of CCL2 was inhibited by DT in both prostate cancer cells and macrophage, the effect of DT on monocyte/cancer cell co-culture and macrophage/cancer cell co-culture was examined using the invasion assay described in Example 9. • (a) THP1 monocytes, Raw264.7 macrophage, monocyte/prostate cancer co-culture and macrophage/prostate cancer co-culture were treated with a vehicle (DMSO), 5 or 10 μM DT for 24 hours, the cultured medium was collected and placed into the lower chamber of a transwell plate. • (b) Prostate cancer cells (PC3, DU145 and 22RV1) were placed in the cell invasion assay). The level of CCL2 in the invasion assay was measured by ELIZA method.
# [5] = test system: lung cancer cell lines (A549 and chemotherapy-resistant/metastatic H460); assay: XTT proliferation assay, lung cancer cells; details: 1-2 days, FIG. 2
# Experimental: The prostate cancer cells were plated at a density of 10^3 or 3×10^3 per well, in a 96-well plate, in a medium containing 10% Fetal bovine serum (FBS) (Gibco®, commercially available from Life Technologies, USA). Once the prostate cancer cells were attached to the culture dish, the 10% FBS medium was replaced with a second 10% FBS medium and each of the prostate cancer cell line was treated with 1, 5, and 10 μM of DT respectively for 1-2 days. The absorbance was measured using XTT assay kit (commercially available from Roche, Switzerland) at 492 nm using an ELISA reader (Bio-Rad Laboratories, USA). An in vitro evaluation of the effect of DT, gemcitabine (a chemotherapeutic agent) and etoposide (a chemotherapeutic agent) on the lung cancer cells was performed. The lung cancer cell lines, chemotherapy-resistant/metastatic H460 lung cancer cells (with pleural metastasis) and A549 lung cancer cells, were purchased from Bioresource Collection and Research Center, Taiwan. […] The absorbance was measured using XTT assay kit at 492 nm using an ELISA reader.
# [6] = test system: CCL2 in THP1 cells/22RV1 co-culture; assay: CCL2 ELISA, THP1/22RV1 co-culture; details: DT-treated monocyte/22RV1 co-culture medium; 5 or 10 μM DT, 24 hours; FIG. 15 (b)
# Experimental: as §3
# [7] = test system: γ-H2AX, phosphorylated-ATM, phosphorylated-p53, PUMA, BAX, caspase-3, caspase-9 and PARP in LNCaP and DU145 prostate cancer cells; assay: Western blot of cell damage and cell death proteins, prostate cancer cells; details: various concentrations of DT, 6 to 24 hours, vs control vehicle; dose and time dependent; FIG. 9 (a)-(g)
# Experimental: An in vitro evaluation on the damage effect of DT on cancer cells was performed, using prostate cancer cells (metastatic LNCaP and metastatic DU145, hormone therapy resistant and metastatic PC3 and 22RV1) and lung cancer cells (A549 and chemotherapy-resistant/metastatic H460).
# Cancer cells were treated with a control vehicle, dihydrotestosterone (DHT), and various concentrations of DT between 6 to 24 hours. Cellular extracts of treated cancer cells were analyzed using Western Blot.
# [8] = test system: lung cancer cells (A549 and chemotherapy resistant/metastatic H460); assay: Cell migration (wound-healing) assay, lung cancer cells; details: DT vs control vehicle, 24 h, dose dependent; FIG. 11
# Experimental: as §1
# Cell Migration Assay: In vitro wound-healing assay was used to assess cell motility in two dimensions. Cancer cells were plated overnight to achieve a subconfluent cell layer in 24-well plates. A scratch was made on the cell layer with a micropipette tip, and cultures were washed twice with serum-free medium to remove floating cells. Cancer cells were incubated in a culture medium containing DT or the control vehicle. Wound healing was visualized by comparing photographs taken at the time of adding the DT/control vehicle and 24 h later. Three experiments were done in quadruplicates.
smiles,measurement,setting,value
"Cc1cccc2c3c(ccc12)C(=O)C1=C(OCC1C)C3=O (centres unmarked) [DT, dihydroisotanshinone I]",prostate cancer cell motility (invasion assay),[1],reduced the motility and migration of prostate cancer cells
same,mobility of the macrophages,[2],not affected
same,"early apoptosis, late apoptosis and necrosis, prostate cancer cells",[3],"more early apoptosis, late apoptosis and necrosis; also recorded: induced prostate cancer cell apoptosis/necrosis"
same,migration of prostate cancer cells,[4]; DT-treated macrophage medium,significantly inhibit the migration of prostate cancer cells in a dose-dependent manner
same,migration of prostate cancer cells,[4]; DT-treated macrophage/prostate cancer co-culture medium,significantly inhibit the migration of prostate cancer cells in a dose-dependent manner
same,migration of prostate cancer cells,[4]; DT-treated monocyte medium,significantly inhibit the migration of prostate cancer cells in a dose-dependent manner
same,migration of prostate cancer cells,[4]; DT-treated monocyte/prostate cancer co-culture medium,significantly inhibit the migration of prostate cancer cells in a dose-dependent manner
same,inhibition of lung cancer cells (proliferation),"[5]; 5, 10 and 20 μM DT, XTT",inhibits the lung cancer cells in a dose dependent fashion
same,"inhibition of lung cancer proliferation, DT compared with gemcitabine and etoposide","[5]; DT 5, 10, 20 μM, gemcitabine hydrochloride and etoposide 10, 20 μM, regardless of the dosage, also H460",more effective than gemcitabine and etoposide in inhibiting lung cancer proliferation
same,concentration of CCL2,[6],significantly reduced
same,"DNA damage response proteins (γ-H2AX and phosphorylated-ATM), prostate cancer cells",[7],increased
same,"cell cycle regulatory protein (phosphorylated-p53), prostate cancer cells",[7],increased
same,"cell program death proteins (PUMA, BAX, caspase-3, caspase-9 and PARP), prostate cancer cells",[7],increased
same,lung cancer cell migration into the wounded area,[8],reduced metastatic lung cancer cell migration; also recorded: reduced lung cancer cell migration into the wounded area
